# “Also recorded” adds a separate entry of the source. Read-outs that look alike come from different tables or passages of the source.
# B1: recombinant Debaryomyces castellii CBS 2923 phytase (recPhyt, expressed in Pichia pastoris), SEQ ID No. 2 (Schwanniomyces capriottii) (protein)
# chain: MVSVSKLINNGLLLVGQGAYQDLASPQQASVEQYNIIRFLGGAAPYIQNKGFGISTDIPDQCTLEQVQLFSRHGERYPSTGSGKKYKAVYEKLMSYNGTFKGELAFLNDDYEYFVPDSVYLEKETSPKNSDSIYAGTTDAMKHGIAFRTKYGELFDTNDTLPVFTSNSGRVYQTSQYFARGFMGDDFSNDTVKTNIISEDADMGANSLTPRDGCFNYNENANTAIVDEYTTEYLTKALNRFKASNPGLNITEDDVSNLFGYCAYELNVKGASPMCDIFTNEEFIQYSYSVDLDDYYSNSAGNNMTRVIGSTLLNASLELLNHDKNENKIWLSFTHDTDIEIFHSAIGILIPDEDLPVDYTPFPSPYSHVGITPQGARTIIEKYACGNESYVRYVINDAVIPIKKCSSGPGFSCNLNDYNDYVAERVAGTNYVEQCGNNNASAVTFYWDYETTNYTASLINS
# B2: Debaryomyces castellii CBS 2923 phytase, native (wild type), SEQ ID No. 2 (Schwanniomyces capriottii) (protein)
# chain: VSVSKLINNGLLLVGQGAYQDLASPQQASVEQYNIIRFLGGAAPYIQNKGFGISTDIPDQCTLEQVQLFSRHGERYPSTGSGKKYKAVYEKLMSYNGTFKGELAFLNDDYEYFVPDSVYLEKETSPKNSDSIYAGTTDAMKHGIAFRTKYGELFDTNDTLPVFTSNSGRVYQTSQYFARGFMGDDFSNDTVKTNIISEDADMGANSLTPRDGCFNYNENANTAIVDEYTTEYLTKALNRFKASNPGLNITEDDVSNLFGYCAYELNVKGASPMCDIFTNEEFIQYSYSVDLDDYYSNSAGNNMTRVIGSTLLNASLELLNHDKNENKIWLSFTHDTDIEIFHSAIGILIPDEDLPVDYTPFPSPYSHVGITPQGARTIIEKYACGNESYVRYVINDAVIPIKKCSSGPGFSCNLNDYNDYVAERVAGTNYVEQCGNNNASAVTFYWDYETTNYTASLINS
# What was measured:
# [1] = test system: D. castellii phytase; assay: Substrate specificity, phosphate release kinetics (Table 6A); format: biochemical, Debaryomyces castellii; settings: 250 mM sodium acetate buffer, 1 mM CaCl2, pH 4, 37° C.
# Procedure: The reaction is triggered by the addition of the enzymatic extract (1 volume). The reaction is stopped by acidification of the medium with 20% trichloroacetic acid (1 volume of reaction medium+1 volume of acid). The amount of phosphate released is determined after various incubation times.
# [2] = test system: D. castellii phytase; assay: Influence of effectors on phytase activity; format: biochemical, Debaryomyces castellii; settings: for inhibition of phytase activity: concentrations see Table 3
# [3] = target: T1, Debaryomyces castellii CBS 2923 phytase, native (wild type), SEQ ID No. 2 (Schwanniomyces capriottii, UniProt A2TBB4); assay: Influence of effectors on the phytase activity; format: biochemical; settings: for effect on the phytase activity (in words): Table 3
# Procedure: (§1) The amount of phosphate released is measured by colorimetery. The visualizing solution, prepared extemporaneously, contains iron sulphate (380 mM, 1 volume) and ammonium heptamolybdate (12 mM, 4 volumes). The absorbance at 700 nm is measured after 30 minutes of visualization at ambient temperature (1 volume of reaction medium+1 volume of visualizing solution), using a UV/visible spectrophotometer (Beckman DU 530).
# [4] = test system: Debaryomyces castellii CBS2923 phytase; assay: Influence of the environment (additives, calcium, buffer molarity) on thermostability of the phytase; format: physicochemical
# Procedure: At the end of treatment, the extract is cooled in water at +4° C. […] Three types of elements are tested: • sugars or sugar alcohol: sucrose, lactose, trehalose, arabinose, glycerol, • the absence of calcium, • the molarity of the buffer. […] At the end of treatment, the extract is cooled in water to +4° C. […] Materials and Methods).
# [5] = test system: Schwanniomyces occidentalis phytase; settings: Segueilha et al., 1992; cited from earlier work
# [6] = test system: D. castellii phytase; assay: Hydrolysis of various inositol phosphates (Table 6B); format: biochemical, Debaryomyces castellii; settings: hydrolysis 30 minutes at 37° C., pH 4
# [7] = test system: D. castellii phytase; assay: Kinetic constants of the native phytase on substrates; format: biochemical, Debaryomyces castellii; settings: +37° C., pH 4 with sodium phytate, pH 5.5 with p-NPP
# Procedure: (§2) The effect of pH on the phytase activity is determined using the following buffer solutions: 200 mM glycine-HCl, pH 2-3.5; 200 mM sodium acetate-acetic acid, pH 3.5-7; and 200 mM tris-HCl, pH 7-9. The reactions are carried out at +37° C. using the phytate as substrate. The optimum temperature is determined by varying the temperature from +30° C. to +80° C. […] After the heat treatment, the mixture is cooled in ice and the phytase activity is determined using the phytate as substrate.
# (§3) The kinetic constants are determined on 2 substrates.
# [8] = target: recombinant Debaryomyces castellii CBS 2923 phytase (recPhyt, expressed in Pichia pastoris), SEQ ID No. 2 (Schwanniomyces capriottii, UniProt A2TBB4); settings: phytate compared with p-NPP
# [9] = target: T1, Debaryomyces castellii CBS 2923 phytase, native (wild type), SEQ ID No. 2; assay: Kinetic constants (specificity study) of the native phytase; format: biochemical; settings: native enzyme; calcium phytate versus pNPP
# Procedure: as §2, §1, §3
# [10] = substrate: O=P(O)(O)O[C@H]1[C@H](OP(=O)(O)O)[C@@H](OP(=O)(O)O)[C@H](OP(=O)(O)O)[C@@H](OP(=O)(O)O)[C@H]1OP(=O)(O)O; assay: purified protein, by the assay type
# [11] = additive 10% in 250 mM acetate buffer pH 4, 1 mM calcium
# [12] = effector 5 mM, phytate control = 100
# [13] = CaCl2 0 mM (absence of calcium), 250 mM acetate buffer pH 4
# [14] = other: native enzyme, 37° C., pH 4 for sodium phytate, pH 5.5 for p-NPP
molecule,measurement,setting,value
O=P(O)(O)OCC(O)CO (stereo in doubt) [L-α-glycerophosphate],% activity,[1]; substrate 4 mM,78%
OCCS [2-mercaptoethanol],effect on phytase activity,"[2]; inhibitors tested, see Table 3",absence of effect
same,% activity,"[3]; effector 3 mM, phytate control 9 mM = 100",107%
Nc1ncnc2c1ncn2[C@@H]1O[C@H](COP(=O)(O)OP(=O)(O)O)[C@@H](O)[C@H]1O [Adenosine 5′-diphosphate],% activity,[1]; substrate 4 mM,120%
Nc1ncnc2c1ncn2[C@@H]1O[C@H](COP(=O)(O)O)[C@@H](O)[C@H]1O [Adenosine 5′-monophosphate],% activity,[1]; substrate 4 mM,50%
Nc1ncnc2c1ncn2[C@@H]1O[C@H](COP(=O)(O)OP(=O)(O)OP(=O)(O)O)[C@@H](O)[C@H]1O [Adenosine 5′-triphosphate],% activity,[1]; substrate 4 mM,133%
"O=C[C@@H](O)[C@H](O)[C@H](O)CO [Arabinose, arabinose]",activity after 1 h at 20° C.,[4]; [11],90
same,activity after 1 h at 66.5° C.,[4]; [11],36
[Ca+2].[Cl-].[Cl-] [CaCl2],% activity,[2]; [12],90%
same,activity after 1 h at 20° C.,[4]; [13],100
same,activity after 1 h at 66.5° C.,[4]; [13],1
[Cl-].[Cl-].[Co+2] [CoCl2],% activity,[2],42.3%
[Cl][Cr][Cl] [CrCl2],% activity,[2]; [12],107.6%
[Cl][Cu][Cl] [CuCl2],% activity,[2]; [12],66.6%
same,effect on phytase activity,[5],sensitive
O=C(O)C(O)COP(=O)(O)O (stereo not drawn) [D(−)3-phosphoglyceric acid],% activity,[1]; substrate 4 mM,95%
O=C(O)CN(CCN(CC(=O)O)CC(=O)O)CC(=O)O [EDTA],% activity,[2],104.5%
[Cl][Fe]([Cl])[Cl] [FeCl3],% activity,[2]; [12],92%
O=C(CO)[C@@H](O)[C@H](O)[C@H](O)COP(=O)(O)O [Fructose-6-phosphate],% activity,[1]; substrate 4 mM,35%
O=C[C@H](O)[C@@H](O)[C@H](O)[C@H](O)COP(=O)(O)O [Glucose-6-phosphate],% activity,[1]; substrate 4 mM,82%
"OCC(O)CO [Glycerol, glycerol]",activity after 1 h at 20° C.,[4]; [11],96
same,activity after 1 h at 66.5° C.,[4]; [11],56
[Cl][Hg][Cl] [HgCl2],% activity,[2]; [12],96.2%
O=P(O)(O)OC1[C@H](O)[C@H](O)C(O)[C@H](O)[C@H]1O (stereo partly drawn) [Ins(1)P1],% activity,[6]; substrate 1 mM,58%
"O=P(O)(O)O[C@H]1[C@H](O)[C@@H](O)[C@H](OP(=O)(O)O)[C@@H](O)[C@H]1O [Ins(1,4)P2]",% activity,[6]; substrate 0.1 mM,65%
"O=P(O)(O)O[C@@H]1[C@H](O)[C@H](O)[C@@H](OP(=O)(O)O)[C@H](OP(=O)(O)O)[C@H]1O [Ins(1,4,5)P3]",% activity,[6]; substrate 0.1 mM,56%
O=P(O)(O)OC1[C@@H](O)[C@H](O)C(O)[C@H](O)[C@H]1O (stereo partly drawn) [Ins(2)P1],% activity,[6]; substrate 1 mM,84%
"OC[C@H]1O[C@@H](O[C@H]2[C@H](O)[C@@H](O)C(O)O[C@@H]2CO)[C@H](O)[C@@H](O)[C@H]1O (stereo partly drawn) [Lactose, lactose]",activity after 1 h at 20° C.,[4]; [11],95
same,activity after 1 h at 66.5° C.,[4]; [11],47
[Cl-].[Cl-].[Mg+2] [MgCl2],% activity,[2]; [12],68.7%
[Cl][Mn][Cl] [MnCl2],inhibition of phytase activity,[2],72%
same,% activity,[2]; [12],28.8%
O=C1CCC(=O)N1Br [N-bromosuccinimide],% activity,"[2]; effector 0.1 and 1 mM, phytate control = 100",1%
same,effect on phytase activity,"[2]; inhibitors tested, see Table 3",completely inhibits
same,effect on the phytase activity (in words),[3],completely inhibits the phytase activity
C=C(OP(=O)(O)O)C(=O)O [Phospho(enol)pyruvate],% activity,[1]; substrate 4 mM,130%
"O=P(O)(O)O[C@H]1[C@H](OP(=O)(O)O)[C@@H](OP(=O)(O)O)[C@H](OP(=O)(O)O)[C@@H](OP(=O)(O)O)[C@H]1OP(=O)(O)O [Phytic acid, myo-inositol hexakisphosphate]",% activity,[1]; substrate 9 mM (control),100%
same,% activity,[6]; substrate 9 mM (control),91%
"O=P(O)(O)O[C@H]1[C@H](OP(=O)(O)O)[C@@H](OP(=O)(O)O)[C@H](OP(=O)(O)O)[C@@H](OP(=O)(O)O)[C@H]1OP(=O)(O)O [Sodium phytate, sodium phytate]",Vm,[7],35.8 µmol/min/mg
same,affinity (in words),[8],greater affinity
"OC[C@H]1O[C@@](CO)(O[C@H]2O[C@H](CO)[C@@H](O)[C@H](O)[C@H]2O)[C@@H](O)[C@@H]1O [Sucrose, sucrose]",activity after 1 h at 20° C.,[4]; [11],97
same,activity after 1 h at 66.5° C.,[4]; [11],57
"OC[C@H]1O[C@H](O[C@H]2O[C@H](CO)[C@@H](O)[C@H](O)[C@H]2O)[C@H](O)[C@@H](O)[C@@H]1O [Trehalose, trehalose]",activity after 1 h at 20° C.,[4]; [11],94
same,activity after 1 h at 66.5° C.,[4]; [11],56
[Cl-].[Cl-].[Zn+2] [ZnCl2],% activity,[2]; [12],57%
same,effect on phytase activity,[5],sensitive
O=P(O)(O)O[C@H]1[C@H](OP(=O)(O)O)[C@@H](OP(=O)(O)O)[C@H](OP(=O)(O)O)[C@@H](OP(=O)(O)O)[C@H]1OP(=O)(O)O [calcium phytate],affinity of the phytase relative to p-nitrophenyl phosphate (pNPP),[9],4 times
II [iodine],% activity,[2],25.6%
same,inhibition of phytase activity,[2],75%
O=C(O)CI [iodoacetic acid],% activity,[2],100%
same,effect on phytase activity,[2],does not cause any inhibition; also recorded: absence of effect
same,effect on the phytase activity (in words),[3],does not cause any inhibition of the activity
N[C@@H](Cc1c[nH]c2ccccc12)C(=O)O [tryptophan],effect on the phytase activity (in words),[3],re-establishes the activity
B1,Km,[10]; 37.0 °C,240 µM
same,Vmax,[10]; 37.0 °C,137.8 U/mg
B2,Km,[10]; [14],532 µM
same,Vmax,[10]; [14],35.8 µmol/min/mg

# Reference: US8003360B2, “Debaryomyces castellii phytase” (Adisseo France S.A.S., priority 2005, dated 2011)
